Source: patent US20060217395A1, “Combinations of paroxetine and 4- (s) - (4-acetyl-piperazin-1-yl) -2- (r)- (4-fluoro-2-methyl- phenyl -piperidine-1-carboxylic acid [1- (r) (3,5-bis-trifluoromethyl-phenyl) -ethyl] methylamide for treatment of depression and / or anxiety” (GLAXO GROUP LIMITED, priority 2003, published 2006)
Where a name gives a salt, the structure may show the parent alone.

Test system: mongolian gerbils
Test: gerbil social interaction model (social stress assay)
Format: in vivo
Details: one hour after administration
Method: Paroxetine hydrochloride hemihydrate (0.03 mg/kg p.o of the paroxetine measured as the free base), 4-(S)-(4-Acetyl-piperazin-1-yl)-2-(R)-(4-fluoro-2-methyl-phenyl)-piperidine-1-carboxylic acid [1-(R)-(3,5-bis-trifluoromethyl-phenyl)-ethyl]-methylamide methansulphonate (hereinafter compound A) (0.03 mg/kg i.p of the compound A measured as the free base) and a combination of paroxetine (0.03 mg/kg p.o. of the paroxetine measured as the free base) and compound A (0.03 mg/kg i.p. of the compound A measured as the free base) were administered independently in mongolian gerbils to assess the effect on time spent in active social interactions.
The results obtained one hour after administration, expressed as a percentage variation of the time spent in active social interactions by each animal in respect to the value obtained by treatment of control animals, are summarised in table 1.

Structure (SMILES) | % variation of the time spent in active social interactions in respect to control animals (0.03 mg/kg i.p. (measured as the free base)) [%] | % variation of the time spent in active social interactions in respect to control animals (0.03 mg/kg p.o. (measured as the free base)) [%]
CC(=O)N1CCN([C@H]2CCN(C(=O)N(C)[C@H](C)c3cc(C(F)(F)F)cc(C(F)(F)F)c3)[C@@H](c3ccc(F)cc3C)C2)CC1.CS(=O)(=O)O [Compound A, 4-(S)-(4-Acetyl-piperazin-1-yl)-2-(R)-(4-fluoro-2-methyl-phenyl)-piperidine-1-carboxylic acid [1-(R)-(3,5-bis-trifluoromethyl-phenyl)-ethyl]-methylamide methansulphonate] | 20.7 | 
Fc1ccc([C@@H]2CCNC[C@H]2COc2ccc3c(c2)OCO3)cc1 [Paroxetine hydrochloride hemihydrate, (−)trans-4-(4′-fluorophenyl)3-(3′-4′-methylenedioxyphenoxymethyl) piperidine] |  | −2.4
